Measurements taken from patent publication US8633205B2, “Substituted pyrrolo[2,3-d]pyrimidines as inhibitors of protein kinases” (Vertex Pharmaceuticals Incorporated, priority 2005, dated 2014).

Key:
Assay type in all cases: biochemical
[1] = molecular target: PKA (Homo sapiens, UniProt P17612); experiment: PKA Inhibition Assay (coupled enzyme assay); conditions: 50 μM ATP, 80 μM Kemptide, 18 nM PKA, 30 °C
Procedure: Compounds were screened for their ability to inhibit PKA using a standard coupled enzyme assay (Fox et al., Protein Sci, 1998, 7, 2249). Assays were carried out in a mixture of 100 mM HEPES (pH 7.5), 10 mM MgCl2, 25 mM NaCl, 1 mM DTT and 3% DMSO. Final substrate concentrations in the assay were 50 μM ATP (Sigma Chemicals) and 80 μM peptide (Kemptide, American Peptide, Sunnyvale, Calif.). Assays were carried out at 30 ° C. and 18 nM PKA. Final concentrations of the components of the coupled enzyme system were 2.5 mM phosphoenolpyruvate, 300 μM NADH, 30 μg/ml pyruvate kinase and 10 μg/ml lactate dehydrogenase.
An assay stock buffer solution was prepared containing all of the reagents listed above, with the exception of ATP, and the test compound of the present invention. 55 μl of the stock solution was placed in a 96 well plate followed by addition of 2 μl of DMSO stock containing serial dilutions of the test compound of the present invention (typically starting from a final concentration of 5 μM). The plate was preincubated for 10 minutes at 30° C. and the reaction initiated by addition of 5 μl of ATP (final concentration 50 μM). Initial reaction rates were determined with a Molecular Devices SpectraMax Plus plate reader over a 15 minute time course. IC50 and Ki data were calculated from non-linear regression analysis using the Prism software package (GraphPad Prism version 3.0a for Macintosh, GraphPad Software, San Diego, Calif., USA).

[2] = molecular target: JAK2 (Homo sapiens, UniProt O60674); experiment: JAK2 Inhibition Assay; conditions: 15 μM poly(Glu)4Tyr, 12 μM ATP; read-out: JAK2 enzyme inhibition (Ki)
Procedure: (§1) Compounds were screened for their ability to inhibit JAK using the […] below. Reactions were carried out in a kinase buffer containing 100 mM HEPES (pH 7.4), 1 mM DTT, 10 mM MgCl2, 25 mM NaCl, and 0.01% BSA.
(§2) Substrate concentrations in the assay were 5 μM ATP (200 uCi/μmole ATP) 1 μM poly(Glu)4Tyr. Reactions were carried out at 25 ° C. and 1 nM JAK3.
(§3) To each well of a 96 well polycarbonate plate was added 1.5 μl of a JAK3 inhibitor along with 50 μl of kinase buffer containing 2 μM poly(Glu)4Tyr and 10 μM ATP. This was then mixed and 50 μl of kinase buffer 2 nM JAK3 enzyme was added to start the reaction. After 20 minutes at room temperature (25C), the reaction was stopped with 50 μl of 20% trichloroacetic acid (TCA) that also contained 0.4 mM ATP. The entire contents of each well were then transferred to a 96 well glass fiber filter plate using a TomTek Cell Harvester. After washing, 60 μl of scintillation fluid was added and ^33P incorporation detected on a Perkin Elmer TopCount.
As described above in Example 11 except that JAK-2 enzyme is used, the final poly(Glu)4Tyr concentration is 15 μM, and final ATP concentration is 12 μM.

[3] = molecular target: T1, ROCK (Homo sapiens, UniProt Q13464); experiment: ROCK Inhibition Assays; conditions: read-out: ROCK enzyme inhibition (Ki)
T1 construct: ROCK I (AA 6-553)
Procedure: Compounds are screened for their ability to inhibit ROCK I (AA 6-553) activity using a standard coupled enzyme system (Fox et al. Protein Sci. 7: 2249, 1998). Reactions are carried out in a solution containing 100 mM HEPES (pH 7.5), 10 mM MgCl2, 25 mM NaCl, 2 mM DTT and 1.5% DMSO. Final substrate concentrations in the assay are 45 μM ATP (Sigma Chemicals, St Louis, Mo.) and 200 μM peptide (American Peptide, Sunnyvale, Calif.). Reactions are carried out at 30 ° C. and 45 nM ROCK I. Final concentrations of the components of the coupled enzyme system are 2.5 mM phosphoenolpyruvate, 350 μM NADH, 30 μg/ml pyruvate kinase and 10 μg/ml lactate dehydrogenase.
Compounds are screened for their ability to inhibit ROCK using a standard radioactive enzyme assay. Assays are carried out in a solution containing 100 mM HEPES (pH 7.5), 10 mM MgCl2, 25 mM NaCl, 2 mM DTT and 1.5% DMSO. Final substrate concentrations in the assay are 13 μM [γ-^33P] ATP (25 mCi ^33P ATP/mmol ATP, Perkin Elmer, Cambridge, Mass./Sigma Chemicals, St Louis, Mo.) and 27 μM Myelin Basic Protein (MBP). Final enzyme concentration in the assay is 5 nM ROCK. Assays are carried out at room temperature. 1.5 μl of DMSO stock containing serial dilutions of the compound of the present invention (concentrations ranging from 10 μM to 2.6 nM) is placed in a 96 well plate. 50 μl of Solution 1 (100 mM HEPES (pH 7.5), 10 mM MgCl2, […] [γ-^33P] ATP) is added to the plate. The reaction is initiated by addition of 50 μl of Solution 2 (100 mM HEPES (pH 7.5), 10 mM MgCl2, 4 mM DTT, […] and 10 nM ROCK). After 2 hours the reaction is quenched with 50 μL of 30% trichloroacetic acid (TCA, Fisher) containing 9 mM ATP. Transfer of 140 μL of the quenched reaction to a glass fiber filter plate (Corning, Cat. No.3511) is followed by washing 3 times with 5% TCA. 50 μL of Optima Gold scintillation fluid (Perkin Elmer) is added and the plates are counted on a Top Count (Perkin Elmer). After removing mean background values for all of the data points the data is fit using Prism software to obtain a Ki(app).

[4] = molecular target: T2, JAK3 (Homo sapiens, UniProt P52333); experiment: JAK3 Inhibition Assay; conditions: 1 μM poly(Glu)4Tyr, 5 μM ATP, 1 nM JAK3, 25 °C; read-out: JAK3 enzyme inhibition (Ki)
T2 sequence (P52333 1-1124): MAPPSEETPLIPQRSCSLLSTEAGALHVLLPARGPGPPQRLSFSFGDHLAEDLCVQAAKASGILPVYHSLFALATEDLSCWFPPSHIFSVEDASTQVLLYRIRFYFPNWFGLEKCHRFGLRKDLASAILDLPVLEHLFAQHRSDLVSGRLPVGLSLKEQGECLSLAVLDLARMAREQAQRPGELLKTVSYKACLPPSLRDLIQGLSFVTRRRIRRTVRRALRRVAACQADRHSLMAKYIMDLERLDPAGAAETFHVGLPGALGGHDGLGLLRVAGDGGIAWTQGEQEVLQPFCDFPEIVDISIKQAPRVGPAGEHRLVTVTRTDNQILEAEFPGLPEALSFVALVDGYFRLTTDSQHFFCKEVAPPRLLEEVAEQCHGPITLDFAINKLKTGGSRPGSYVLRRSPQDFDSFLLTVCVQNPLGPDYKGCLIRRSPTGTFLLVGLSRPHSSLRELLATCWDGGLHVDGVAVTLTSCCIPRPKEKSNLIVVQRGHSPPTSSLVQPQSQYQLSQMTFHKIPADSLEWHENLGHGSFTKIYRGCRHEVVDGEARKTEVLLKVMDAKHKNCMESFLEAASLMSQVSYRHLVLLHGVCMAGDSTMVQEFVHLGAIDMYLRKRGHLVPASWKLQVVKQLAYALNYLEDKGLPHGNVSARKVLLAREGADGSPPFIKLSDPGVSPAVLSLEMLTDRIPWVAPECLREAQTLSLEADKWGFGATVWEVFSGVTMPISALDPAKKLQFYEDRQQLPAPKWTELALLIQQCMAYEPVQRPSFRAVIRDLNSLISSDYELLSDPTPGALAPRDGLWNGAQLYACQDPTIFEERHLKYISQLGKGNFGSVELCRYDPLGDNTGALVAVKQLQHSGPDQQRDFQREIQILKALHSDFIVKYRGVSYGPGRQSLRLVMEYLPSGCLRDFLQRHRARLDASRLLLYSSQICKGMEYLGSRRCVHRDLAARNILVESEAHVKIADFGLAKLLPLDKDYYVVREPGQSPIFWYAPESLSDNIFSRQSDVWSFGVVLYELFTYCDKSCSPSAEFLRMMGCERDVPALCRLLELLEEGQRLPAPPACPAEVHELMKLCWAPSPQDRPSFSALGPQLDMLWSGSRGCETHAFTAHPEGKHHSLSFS
Procedure: as §1, §2, §3

Sequence of JAK2 (O60674 whole entry): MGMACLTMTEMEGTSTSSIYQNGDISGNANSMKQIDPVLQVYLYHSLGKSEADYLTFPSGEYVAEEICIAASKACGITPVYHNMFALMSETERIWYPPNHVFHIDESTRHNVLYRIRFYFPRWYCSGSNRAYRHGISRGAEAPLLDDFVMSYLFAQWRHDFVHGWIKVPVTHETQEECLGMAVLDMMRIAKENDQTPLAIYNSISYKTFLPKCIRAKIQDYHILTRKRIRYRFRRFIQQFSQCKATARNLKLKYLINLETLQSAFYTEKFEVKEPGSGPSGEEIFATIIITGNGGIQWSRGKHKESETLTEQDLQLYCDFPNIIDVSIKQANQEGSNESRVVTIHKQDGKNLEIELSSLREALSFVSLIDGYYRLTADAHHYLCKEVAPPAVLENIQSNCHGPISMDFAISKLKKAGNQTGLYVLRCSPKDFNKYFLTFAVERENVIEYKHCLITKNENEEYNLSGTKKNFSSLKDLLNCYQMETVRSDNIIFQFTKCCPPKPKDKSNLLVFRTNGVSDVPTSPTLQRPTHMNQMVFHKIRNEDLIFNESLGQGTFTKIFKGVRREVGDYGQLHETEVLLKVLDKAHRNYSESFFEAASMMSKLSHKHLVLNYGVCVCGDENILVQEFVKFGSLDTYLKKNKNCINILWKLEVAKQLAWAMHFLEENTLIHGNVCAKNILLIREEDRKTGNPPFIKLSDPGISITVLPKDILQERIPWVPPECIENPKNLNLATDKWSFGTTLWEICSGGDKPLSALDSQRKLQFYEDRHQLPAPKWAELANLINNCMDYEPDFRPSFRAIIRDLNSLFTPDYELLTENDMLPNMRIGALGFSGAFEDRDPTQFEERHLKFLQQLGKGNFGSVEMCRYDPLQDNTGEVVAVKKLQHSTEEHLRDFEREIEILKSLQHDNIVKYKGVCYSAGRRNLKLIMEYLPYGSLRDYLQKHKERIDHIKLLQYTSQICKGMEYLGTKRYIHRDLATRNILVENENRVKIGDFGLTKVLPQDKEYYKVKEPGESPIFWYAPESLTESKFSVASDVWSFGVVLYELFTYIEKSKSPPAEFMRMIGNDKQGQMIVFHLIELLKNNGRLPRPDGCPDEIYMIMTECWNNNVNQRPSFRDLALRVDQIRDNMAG
T1 sequence (Q13464 6-553): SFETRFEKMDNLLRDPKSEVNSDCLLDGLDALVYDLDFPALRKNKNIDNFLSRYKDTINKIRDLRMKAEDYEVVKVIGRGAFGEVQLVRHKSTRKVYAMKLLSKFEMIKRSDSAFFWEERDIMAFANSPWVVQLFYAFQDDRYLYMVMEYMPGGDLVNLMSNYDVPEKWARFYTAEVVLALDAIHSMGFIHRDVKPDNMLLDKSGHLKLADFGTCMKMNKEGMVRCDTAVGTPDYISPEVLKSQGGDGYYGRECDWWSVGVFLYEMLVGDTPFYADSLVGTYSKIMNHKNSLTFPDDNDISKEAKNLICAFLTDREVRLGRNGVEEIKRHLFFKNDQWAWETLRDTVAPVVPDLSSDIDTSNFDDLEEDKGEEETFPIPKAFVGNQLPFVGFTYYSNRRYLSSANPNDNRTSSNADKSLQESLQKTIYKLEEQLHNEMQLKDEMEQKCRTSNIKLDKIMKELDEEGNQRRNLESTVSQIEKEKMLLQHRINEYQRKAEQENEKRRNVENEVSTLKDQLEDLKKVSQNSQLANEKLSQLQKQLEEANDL

SMILES | Ki [1] [nM] | Ki [2] [nM] | Ki [3] [nM] | Ki [4] [nM]
CC(c1ccccc1)c1ncnc2[nH]ccc12 (stereo not drawn) [Compound 23] | 500 to 5000 | 500 to 5000 | 500 to 5000 | 500 to 5000
COC(=O)C(C)Cc1ncnc2[nH]ccc12 (stereo not drawn) [Compound 24] | 500 to 5000 | > 5000 | 500 to 5000 | > 5000
c1nc(C2CC3CCC2C3)c2cc[nH]c2n1 (stereo not drawn) [Compound 26, 4-Bicyclo[2.2.1]hept-2-yl-7H-pyrrolo[2,3-d]pyrimidine] | 500 to 5000 | < 500 | 500 to 5000 | < 500
CC(C)(C#N)CCCCc1ncnc2[nH]ccc12 [Compound 30] | 500 to 5000 | 500 to 5000 | 500 to 5000 | 500 to 5000

Results, then the molecule that gave them:

Ki [1] [nM] | Ki [2] [nM] | Ki [3] [nM] | Ki [4] [nM] | SMILES
500 to 5000 | 500 to 5000 | 500 to 5000 | 500 to 5000 | CC(C)Cc1ncnc2[nH]ccc12 [Compound 25]
500 to 5000 | < 500 | 500 to 5000 | < 500 | c1nc(CC2CCCCC2)c2cc[nH]c2n1 [Compound 27]
500 to 5000 | 500 to 5000 | 500 to 5000 | 500 to 5000 | N#CCCCCc1ncnc2[nH]ccc12 [Compound 28]
500 to 5000 | 500 to 5000 | 500 to 5000 | 500 to 5000 | c1nc(CCC2OCCCO2)c2cc[nH]c2n1 [Compound 29]
500 to 5000 | < 500 | 500 to 5000 | < 500 | CC(C)CCc1ncnc2[nH]ccc12 [Compound 31]
